Source: patent US7910751B2, “Heterocyclidene acetamide derivative” (Mochida Pharmaceutical Co., Ltd., priority 2005, dated 2011)

Biological target: T1, human TRPV1 (Homo sapiens, UniProt Q8NER1)
T1 construct: expressed in transfected cells; host or cells: CHO-K1
Test: Measurement of capsaicin-induced Ca influx in human TRPV1 transformed CHO cell line using FDSS-6000
Format: cell-based
Details: concentration at which the capsaicin concentration-reaction curve is shifted two times to the right, human TRPV1 transformed CHO cells
From the text: [Measurement of Capsaicin-Induced Ca Influx in Human TRPV1 Transformed CHO Cell Line]
(1) Establishment of Human TRPV1 Transformed CHO Cell Line
Human vanilloid receptor 1 (hTRPV1) cDNA was cloned from a human brain. The cloned hTRPV1 cDNA was incorporated in a pCAGGS vector. The gene of the vector was introduced to a CHO-K1 cell line, thus performing transformation. Clones obtained by limiting dilution were stimulated with capsaicin. Clones with a high responsiveness were selected using an increase in the Ca concentration as an indicator. The selected clones were used for the following experiment.
(2) Measurement of Ca Influx Using FDSS-6000
The human TRPV1 transformed CHO cells were seeded in a 96-well plate (with black walls and transparent bottoms, manufactured by Greiner) at a density of 40,000 cells per well. The cells were cultured at 37° C. in 5% CO2 for one night. A loading solution of FLIPR Calcium 3 assay kit (manufactured by Molecular Devices Corporation) containing 2.5 mmol/L of probenecid was then added to each of the wells in the same amount as the culture medium, and the cells were cultured at 37° C. for 60 minutes. After the cells were stimulated with capsaicin (1 nmol/L to 1 μmol/L), the change in the Ca concentration in the cells was measured using FDSS-6000 (λex: 480 nm, λem: 540 nm, manufactured by Hamamatsu Photonics K.K.) for three minutes. The integrated values of the increase rate of the Ca concentration in the cells were calculated for a group treated with the compounds of the present invention and a group treated with a medium, thus allowing capsaicin concentration-reaction curves to be obtained. A concentration (A2 value) of each of the compounds of the present invention, at which the capsaicin concentration-reaction curve obtained when the cells were treated with the medium was shifted two times to the right side, was calculated. The inhibiting effects of the test compounds were compared using this value as an indicator.
In the case where a compound of the present invention is an agonist, when the cells are treated with the compound of the present invention prior to the capsaicin stimulation, the Ca influx is observed. In Table 1, compounds of the present invention having an A2 value of less than 100 nM are represented by A, and compounds having an A2 value of 100 nM or more are represented by B. When the A2 values of the compounds of the present invention were measured by the above-described method, the compounds have an intensity of 1 μM or less.

T1 sequence (Q8NER1 whole entry): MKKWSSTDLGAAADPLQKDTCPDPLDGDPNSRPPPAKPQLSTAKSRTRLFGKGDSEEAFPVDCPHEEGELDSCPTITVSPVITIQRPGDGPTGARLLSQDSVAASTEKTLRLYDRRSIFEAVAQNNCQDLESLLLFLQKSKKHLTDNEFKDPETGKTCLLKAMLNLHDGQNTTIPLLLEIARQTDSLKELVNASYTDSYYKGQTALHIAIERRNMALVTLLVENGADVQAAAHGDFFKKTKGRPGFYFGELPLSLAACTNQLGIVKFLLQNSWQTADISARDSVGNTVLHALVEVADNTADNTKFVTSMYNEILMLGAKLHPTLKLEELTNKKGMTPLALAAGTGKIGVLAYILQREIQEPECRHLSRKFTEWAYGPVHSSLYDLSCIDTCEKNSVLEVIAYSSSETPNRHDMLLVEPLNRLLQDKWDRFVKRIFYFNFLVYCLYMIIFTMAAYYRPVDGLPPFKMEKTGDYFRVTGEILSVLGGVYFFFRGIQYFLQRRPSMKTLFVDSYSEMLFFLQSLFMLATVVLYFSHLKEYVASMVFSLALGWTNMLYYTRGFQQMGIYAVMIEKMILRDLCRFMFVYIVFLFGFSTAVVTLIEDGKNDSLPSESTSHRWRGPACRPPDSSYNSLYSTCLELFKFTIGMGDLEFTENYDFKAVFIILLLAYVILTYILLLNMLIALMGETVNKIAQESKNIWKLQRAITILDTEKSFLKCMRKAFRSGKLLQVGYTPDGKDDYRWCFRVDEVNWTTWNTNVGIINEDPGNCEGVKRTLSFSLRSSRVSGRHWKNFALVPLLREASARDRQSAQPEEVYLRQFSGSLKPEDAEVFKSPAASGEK

With O=C(/C=C1\CCCOc2cc(C(F)(F)F)ccc21)Nc1ccc2nccnc2c1 [Example 12, (E)-2-(8-trifluoromethyl-3,4-dihydrobenzo[b]oxepin-5(2H)-ylidene)-N-(quinoxalin-6-yl)acetamide] as the compound, how does the “A2 VALUE” read?
Its value is “A (compounds of the present invention having an A2 value of less than 100 nM are represented by A)”.

With O=C(/C=C1\CCCOc2cc(C(F)(F)F)ccc21)Nc1ccc2cccnc2c1 [Example 13, (E)-2-(8-trifluoromethyl-3,4-dihydrobenzo[b]oxepin-5(2H)-ylidene)-N-(quinolin-7-yl)acetamide] as the compound, how does the “A2 VALUE” read?
The value was “A (compounds of the present invention having an A2 value of less than 100 nM are represented by A)”.

Which “A2 VALUE” does the source give for CC(C)(C)c1ccc(NC(=O)/C=C2\CCCOc3cc(C(F)(F)F)ccc32)cc1 [Example 14, (E)-N-(4-tert-butylphenyl)-2-(8-trifluoromethyl-3,4-dihydrobenzo[b]oxepin-5(2H)-ylidene)acetamide] here?
The value was “A (compounds of the present invention having an A2 value of less than 100 nM are represented by A)”.

O=C(/C=C1\CCCOc2cc(C(F)(F)F)ccc21)Nc1ccc(C(F)(F)F)cc1 [Example 15, (E)-2-(8-trifluoromethyl-3,4-dihydrobenzo[b]oxepin-5(2H)-ylidene)-N-(4-trifluoromethylphenyl)acetamide] was tested. Which “A2 VALUE” did it give?
The value was “B (compounds having an A2 value of 100 nM or more are represented by B)”.

Which “A2 VALUE” does the source give for COc1cccc(NC(=O)/C=C2\CCCOc3cc(C(F)(F)F)ccc32)c1 [Example 16, (E)-2-(8-trifluoromethyl-3,4-dihydrobenzo[b]oxepin-5(2H)-ylidene)-N-(3-methoxyphenyl)acetamide] here?
The value was “A (compounds of the present invention having an A2 value of less than 100 nM are represented by A)”.

How did the “A2 VALUE” turn out when CN1CCCc2ccc(NC(=O)/C=C3\CCCOc4cc(C(F)(F)F)ccc43)cc21 [Example 17, (E)-2-(8-trifluoromethyl-3,4-dihydrobenzo[b]oxepin-5(2H)-ylidene)-N-(1,2,3,4-tetrahydro-1-methylquinolin-7-yl)acetamide] was run?
The value was “A (compounds of the present invention having an A2 value of less than 100 nM are represented by A)”.

O=C(/C=C1\CCCOc2cc(C(F)(F)F)ccc21)Nc1cccc2ccc(O)cc12 [Example 18, (E)-2-(8-trifluoromethyl-3,4-dihydrobenzo[b]oxepin-5(2H)-ylidene)-N-(7-hydroxynaphthalen-1-yl)acetamide] was tested. Which “A2 VALUE” did it give?
The value was “A (compounds of the present invention having an A2 value of less than 100 nM are represented by A)”.

With Cc1nc2cc(NC(=O)/C=C3\CCCOc4cc(C(F)(F)F)ccc43)ccc2s1 [Example 19, (E)-2-(8-trifluoromethyl-3,4-dihydrobenzo[b]oxepin-5(2H)-ylidene)-N-(2-methyl-1,3-benzothiazolo-5-yl)acetamide] as the compound, how does the “A2 VALUE” read?
The value was “A (compounds of the present invention having an A2 value of less than 100 nM are represented by A)”.

Which “A2 VALUE” does the source give for O=C(/C=C1\CCCOc2cc(C(F)(F)F)ccc21)Nc1cccnc1N1CCOCC1 [Example 20, (E)-2-(8-trifluoromethyl-3,4-dihydrobenzo[b]oxepin-5(2H)-ylidene)-N-(2-morpholinopyridin-3-yl)acetamide] here?
The value was “B (compounds having an A2 value of 100 nM or more are represented by B)”.

For Cc1cc(=O)oc2cc(NC(=O)/C=C3\CCCOc4cc(C(F)(F)F)ccc43)ccc12 [Example 21, (E)-2-(8-trifluoromethyl-3,4-dihydrobenzo[b]oxepin-5(2H)-ylidene)-N-(4-methyl-2-oxo-2H-chromen-7-yl)acetamide], which “A2 VALUE” is on record?
The value was “B (compounds having an A2 value of 100 nM or more are represented by B)”.

O=C(/C=C1\CCCOc2cc(C(F)(F)F)ccc21)Nc1ccc(Oc2ccccc2)nc1 [Example 22, (E)-2-(8-trifluoromethyl-3,4-dihydrobenzo[b]oxepin-5(2H)-ylidene)-N-(6-phenoxypyridin-3-yl)acetamide] was tested. Which “A2 VALUE” did it give?
Its value is “B (compounds having an A2 value of 100 nM or more are represented by B)”.
